Patent publication US7566718B2, “Amine-linked pyridyl and phenyl substituted piperazine-piperidines with CXCR3 antagonist activity” (Schering Corporation, priority 2005, dated 2009)

Target: T1, human CXCR3 (N-delta 4) (Homo sapiens, UniProt P49682)
T1 construct: CD8 leader (N); Flag tag; expressed in transfected cells; membrane preparation
T1 sequence (P49682 5-368 limits assumed): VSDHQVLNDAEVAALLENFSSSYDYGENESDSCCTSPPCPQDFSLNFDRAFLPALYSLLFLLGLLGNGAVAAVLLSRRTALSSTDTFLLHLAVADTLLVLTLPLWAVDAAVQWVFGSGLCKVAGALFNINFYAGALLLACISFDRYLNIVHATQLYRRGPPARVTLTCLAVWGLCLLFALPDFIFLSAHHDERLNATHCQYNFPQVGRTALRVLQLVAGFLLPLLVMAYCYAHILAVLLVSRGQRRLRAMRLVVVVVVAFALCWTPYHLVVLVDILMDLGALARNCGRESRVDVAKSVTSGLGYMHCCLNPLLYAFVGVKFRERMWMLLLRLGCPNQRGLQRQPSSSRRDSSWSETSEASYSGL
Assay: Human CXCR3 (N-delta 4) scintillation proximity assay (SPA), [125I] IP-10 binding to Ba/F3-hCXCR3 membranes
Settings: IC50 rating; [125I] IP-10 displacement, human CXCR3; read-out: IC50
Description: The inventive compounds can readily be evaluated to determine activity at the CXCR3 receptors by known methods, such as, for example, development of a human CXCR3 (N-delta 4) Binding Assay.
The DNA encoding human CXCR3 was cloned by PCR using human genomic DNA (Promega, Madison, Wis.) as a template. The PCR primers were designed based on the published sequence of human orphan receptor GPR9 (1) with incorporated restriction sites, a Kozak consensus sequence, CD8 leader and Flag tag. The PCR product was subcloned into the mammalian expression vector pME18Sneo, a derivative of the SR-alpha expression vector (designated as pME18Sneo-hCXCR3 (N-delta 4).
IL-3-dependent mouse pro-B cells Ba/F3 were transfected by electroporation in 0.4 ml Dulbecco's PBS containing 4×10^6 cells with 20 μg of pME18Sneo-hCXCR3 (N-delta 4) plasmid DNA. Cells were pulsed at 400 Volts, 100 OHMs, 960 μFd. The transfected cells were under selection with 1 mg/ml G418 (Life Technologies, Gaithersburg, Md.). G418-resistant Ba/F3 clones were screened for CXCR3 expression by specific binding of [^125I] IP-10 (NEN Life Science Products, Boston, Mass.).
Ba/F3 cells expressing human CXCR3 (N-delta 4) were pelleted and resuspended in the lysis buffer containing 10 mM HEPES, pH 7.5 and Complete® protease inhibitors (1 tablet per 100 ml) (Boehringer Mannheim, Indianapolis, Ind.) at a cell density of 20×10^6 cells per ml. After 5 minute incubation on ice, cells were transferred to 4639 cell disruption bomb (Parr Instrument, Moline, Ill.) and applied with 1,500 psi of nitrogen for 30 minutes on ice. Large cellular debris was removed by centrifugation at 1,000×g. Cell membrane in the supernatant was sedimented at 100,000×g. The membrane was resuspended in the lysis buffer supplemented with 10% sucrose and stored at −80° C. Total protein concentration of the membrane was determined by BCA method from Pierce (Rockford, Ill.).
Human CXCR3 (N-Delta 4) Scintillation Proximity Assay (SPA):
For each assay point, 2 μg of membrane was preincubated for 1 hr with 300 μg wheat germ agglutinin (WGA) coated SPA beads (Amersham, Arlington Heights, Ill.) in the binding buffer (50 mM HEPES, 1 mM CaCl2, 5 mM MgCl2, 125 mM NaCl, 0.002% NaN3, 1.0% BSA) at room temperature. The beads were spun down, washed once, resuspended in the binding buffer and transferred to a 96-well Isoplate (Wallac, Gaithersburg, Md.). 25 pM of [^125I] IP-10 with tested compounds in a series of titration were added to start the reaction. After 3 hr reaction at room temperature, the amount of [^125I] IP-10 bound to the SPA beads was determined with a Wallac 1450 Microbeta counter.

Structure (SMILES)	IC50
CC[C@H]1CN(c2ncc(Nc3c(NC4CCC4)c(=O)c3=O)cc2Cl)CCN1C1CCN(Cc2ccc(OC(F)(F)F)cc2)CC1 [Compound 83]	< 25 nM
C[C@@H]1CN(c2ncc(Nc3c(NCC(F)(F)F)c(=O)c3=O)cc2Cl)[C@@H](C)CN1C1CCN(Cc2ccc(Cl)c(Cl)c2)CC1 [Compound 124]	> 100 nM
CC[C@H]1CN(c2ncc(NS(C)(=O)=O)cc2Cl)CCN1C1CCN(C(C(=O)OC)c2ccc(Cl)cc2)CC1 (stereo partly drawn) [Compound 27]	25 to 100 nM
CC[C@H]1CN(c2ncc(N(C)C)cc2Cl)CCN1C1CCN(C(CO)c2ccc(Cl)cc2)CC1 (stereo partly drawn) [Compound 213]	25 to 100 nM
CC[C@H]1CN(c2ncc(Nc3c(NCCO)c(=O)c3=O)cc2Cl)CCN1C1CCN(Cc2ccc(Cl)cc2C(N)=O)CC1 [Compound 72]	< 25 nM
CC[C@H]1CN(c2ncc(N/C(=N/C#N)NCCO)cc2Cl)CCN1C1CCN(Cc2ccc(Cl)cc2F)CC1 [Compound 214]	> 100 nM
C[C@@H]1CN(C2CCN(Cc3ccc(Cl)cc3F)CC2)[C@@H](C)CN1c1ncc(Nc2c(NCC(F)(F)F)c(=O)c2=O)cc1Cl [Compound 104]	25 to 100 nM
CC[C@H]1CN(c2ncc(NC3=NS(=O)(=O)N=C3NC3CC3)cc2Cl)CCN1C1CCN(Cc2ccc(Cl)cc2-c2nnc(Br)[nH]2)CC1 [Compound 270]	> 100 nM
CC[C@H]1CN(c2ncc(NC3=NS(=O)(=O)N=C3N3CCOCC3)cc2Cl)CCN1C1CCN(Cc2ccc(OC(F)(F)F)cc2)CC1 [Compound 261]	25 to 100 nM
CC[C@H]1CN(c2ncc(NS(C)(=O)=O)cc2Cl)CCN1C1CCN(Cc2ccc(Cl)cc2C#N)CC1 [Compound 23]	< 25 nM
CC[C@H]1CN(c2ncc(NC(=O)Oc3ccccc3)cc2Cl)CCN1C1CCN(Cc2ccc(Cl)cc2F)CC1 [Compound 189]	25 to 100 nM
C[C@H]1CN(c2ncc(NC(=O)c3ccc(Cl)cc3)cc2Cl)CCN1C1CCN(Cc2ccc(Cl)cc2)CC1 [Compound 200]	> 100 nM
CC[C@H]1CN(c2ncc(NS(N)(=O)=O)cc2Cl)CCN1C1CCN(C(=O)c2ccc(Cl)cc2)CC1 [Compound 33]	25 to 100 nM
CC[C@H]1CN(c2ncc(Nc3c(NC4CC4)c(=O)c3=O)cc2Cl)CCN1C1CCN(Cc2ccc(Cl)cc2C#N)CC1 [Compound 97]	< 25 nM
CC[C@H]1CN(c2ncc([N+](=O)[O-])cc2Cl)CCN1C1CCN(Cc2ccc(Cl)cc2F)CC1 [Compound 212]	25 to 100 nM
CC[C@H]1CN(c2ncc(NS(C)(=O)=O)cc2Cl)CCN1C1CCN(C(CO)c2ccc(Cl)cc2)CC1 (stereo partly drawn) [Compound 11]	< 25 nM
CC[C@H]1CN(c2ncc(NC3=NS(=O)(=O)N=C3NC3CC3)cc2Cl)CCN1C1CCN([C@H](CO)c2ccc(Cl)cc2)CC1 [Compound 240]	< 25 nM
CCC(C)CN1CCC(N2C[C@H](C)N(c3ncc(Nc4c(NCC(F)(F)F)c(=O)c4=O)cc3Cl)C[C@H]2C)CC1 (stereo partly drawn) [Compound 170]	> 100 nM
CC[C@H]1CN(c2ncc(NS(C)(=O)=O)cc2Cl)CCN1C1CCN(Cc2ccc(C)cc2C)CC1 [Compound 20]	< 25 nM
C[C@@H]1CN(c2ncc(Nc3c(NCC(F)(F)F)c(=O)c3=O)cc2Cl)[C@@H](C)CN1C1CCN(Cc2cc3ccccc3o2)CC1 [Compound 133]	> 100 nM
C[C@@H]1CN(c2ncc(Nc3c(NCC(F)(F)F)c(=O)c3=O)cc2Cl)[C@@H](C)CN1C1CCN(Cc2cccc(C(F)(F)F)c2)CC1 [Compound 157]	> 100 nM
C[C@@H]1CN(C2CCN(Cc3ccc(Cl)cc3F)CC2)[C@@H](C)CN1c1ncc([N+](=O)[O-])cc1Cl [Compound 217]	> 100 nM
CCC(C)(C)C1CCC(N2CCC(N3C[C@H](C)N(c4ncc(Nc5c(NCC(F)(F)F)c(=O)c5=O)cc4Cl)C[C@H]3C)CC2)C1 (stereo partly drawn) [Compound 171]	> 100 nM
CC[C@H]1CN(c2ncc(NC(N)=O)cc2Cl)CCN1C1CCN(Cc2ccc(Cl)cc2F)CC1 [Compound 186]	25 to 100 nM

Structure (SMILES)	IC50
CC[C@H]1CN(c2ncc(NS(C)(=O)=O)cc2Cl)CCN1C1CCN([C@@H](C(N)=O)c2ccc(Cl)cc2)CC1 [Compound 59]	> 100 nM
C[C@@H]1CN(c2ncc(Nc3c(NCC(F)(F)F)c(=O)c3=O)cc2Cl)[C@@H](C)CN1C1CCN(Cc2csc3ccccc23)CC1 [Compound 156]	> 100 nM
Cc1cc(Nc2c(NCC(F)(F)F)c(=O)c2=O)cnc1N1C[C@@H](C)N(C2CCN(C(=O)c3ccc(C(F)(F)F)cc3)CC2)C[C@@H]1C [Compound 164]	> 100 nM
CC[C@H]1CN(c2ncc(NC(=O)NN)cc2Cl)CCN1C1CCN(Cc2ccc(Cl)cc2F)CC1 [Compound 188]	25 to 100 nM
CC[C@H]1CN(c2ncc(Nc3c(NC4CC4)c(=O)c3=O)cc2Cl)CCN1C1CCN(C(=O)c2ccc(Cl)cc2N)CC1 [Compound 111]	25 to 100 nM
CC(C)CCN1CCC(N2C[C@H](C)N(c3ncc(Nc4c(NCC(F)(F)F)c(=O)c4=O)cc3Cl)C[C@H]2C)CC1 [Compound 113]	> 100 nM
C[C@@H]1CN(C2CCN(Cc3ccc(Cl)cc3F)CC2)[C@@H](C)CN1c1ncc(Nc2c(NCC(F)(F)F)c(=O)c2=O)cc1Cl [Compound 92]	< 25 nM
CC[C@H]1CN(c2ncc(NC3=NS(=O)(=O)N=C3NC3CC3)cc2Cl)CCN1C1CCN(Cc2ccc(Cl)cc2-c2ncon2)CC1 [Compound 249]	< 25 nM
CC[C@H]1CN(c2ncc(NC3=NS(=O)(=O)N=C3NC3CC3)cc2Cl)CCN1C1CCN(Cc2ccc(Cl)cc2C#N)CC1 [Compound 260]	25 to 100 nM
CC[C@H]1CN(c2ncc(NC3=NS(=O)(=O)N=C3N3CCC3)cc2Cl)CCN1C1CCN(Cc2ccc(Cl)cc2F)CC1 [Compound 254]	< 25 nM
C[C@@H]1CN(c2ncc(Nc3c(NCC(F)(F)F)c(=O)c3=O)cc2Cl)[C@@H](C)CN1C1CCN(Cc2cccc3c2OCO3)CC1 [Compound 119]	> 100 nM
CC[C@H]1CN(c2ncc(NS(=O)(=O)C(C)C)cc2Cl)CCN1C1CCN(Cc2ccc(Cl)cc2F)CC1 [Compound 29]	25 to 100 nM
C[C@H]1CN(c2ncc(NN)cc2Cl)CCN1C1CCN(Cc2ccc(Cl)cc2F)CC1 [Compound 231]	> 100 nM
CCC(C)CN1CCC(N2C[C@H](C)N(c3ncc(Nc4c(NCC(F)(F)F)c(=O)c4=O)cc3Cl)C[C@H]2C)CC1 (stereo partly drawn) [Compound 132]	> 100 nM
CC[C@H]1CN(c2ncc(NS(N)(=O)=O)cc2Cl)CCN1C1CCN([C@H](C(=O)OC)c2ccc(Cl)cc2)CC1 [Compound 16]	< 25 nM
CC[C@H]1CN(c2ncc(NS(=O)(=O)c3ccc(Cl)cc3)cc2Cl)CCN1C1CCN(Cc2ccc(Cl)cc2F)CC1 [Compound 46]	> 100 nM
CC[C@H]1CN(c2ncc(NC3=NS(=O)(=O)N=C3NCCN)cc2Cl)CCN1C1CCN(Cc2ccc(Cl)cc2F)CC1 [Compound 279]	> 100 nM
CC[C@H]1CN(c2ncc(Nc3c(N(C)C)c(=O)c3=O)cc2Cl)CCN1C1CCN(C(CO)c2ccc(Cl)cc2)CC1 (stereo partly drawn) [Compound 94]	< 25 nM
CC[C@H]1CN(c2ncc(Nc3c(NCC(N)=O)c(=O)c3=O)cc2Cl)CCN1C1CCN([C@H](CO)c2ccc(Cl)cc2)CC1 [Compound 103]	25 to 100 nM
C[C@@H]1CN(C2CCN(Cc3ccc(Cl)cc3F)CC2)[C@@H](C)CN1c1ncc(N)cc1N [Compound 233]	> 100 nM
C[C@@H]1CN(c2ncc(Nc3c(NCC(F)(F)F)c(=O)c3=O)cc2Cl)[C@@H](C)CN1C1CCN(Cc2cc(Cl)cc(Cl)c2)CC1 [Compound 159]	> 100 nM
CC[C@H]1CN(c2ncc(Nc3c(NC4CC4)c(=O)c3=O)cc2Cl)CCN1C1CCN(Cc2ccc(Br)cc2F)CC1 [Compound 79]	< 25 nM
C[C@@H]1CN(c2ncc(Nc3c(NCC(F)(F)F)c(=O)c3=O)cc2Cl)[C@@H](C)CN1C1CCN(Cc2cccc(C#N)c2)CC1 [Compound 143]	> 100 nM
CC[C@H]1CN(c2ncc(NS(C)(=O)=O)cc2Cl)CCN1C1CCN(Cc2ccc(C(=O)OC)cn2)CC1 [Compound 42]	> 100 nM
